IC50 data for 20 compounds are collected here from patent US9656971B2, “COMT inhibitors” (Hoffmann-La Roche Inc., priority 2012, dated 2017).

This test has as its target T1, Rec. human COMT (Homo sapiens, UniProt P21964).
T1 sequence (P21964 1-271): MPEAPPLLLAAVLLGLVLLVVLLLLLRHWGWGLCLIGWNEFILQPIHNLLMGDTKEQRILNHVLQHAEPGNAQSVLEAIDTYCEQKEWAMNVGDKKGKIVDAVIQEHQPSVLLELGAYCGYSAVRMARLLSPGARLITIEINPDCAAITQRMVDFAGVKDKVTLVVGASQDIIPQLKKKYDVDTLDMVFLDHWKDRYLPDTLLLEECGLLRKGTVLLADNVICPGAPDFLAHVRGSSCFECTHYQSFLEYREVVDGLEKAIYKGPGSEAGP
Description: COMT-Fluorescence Assay. It is filed as biochemical. As to conditions: rec. human COMT 25 nM, 4-Nitrocatechol-Alexa488 200 nM, SAM 500 nM. The procedure: This intramolecular interaction is disturbed if the 4-Nitrocatechol is methylated. […] This increase of fluorescence intensity can be followed in a kinetic measurement. The slope in the linear range of the kinetic is calculated. An inhibitor compound decreases the slope.
Signal [rfu/min]=(rfu(end-point)−rfu(startpoint))/incubation_time_#2

[1] abbreviates: COMT-fluorescence assay, read-out: IC50.

Counter-ions that a name gives are not always drawn. Like-named read-outs stand apart in the source and are kept apart here.

Consider `O=c1[nH]cnc2c(O)cc(-c3ccc(F)cc3)c(-c3ccncc3)c12` [Example 56, 6-(4-Fluorophenyl)-8-hydroxy-5-(pyridin-4-yl)quinazolin-4(3H)-one], for which the half-inhibitory concentration (IC50) under setting [1] was determined as 10 nM.

In the case of `O=c1[nH]cnc2c(O)cc(CCCc3ccccc3)cc12` [Example 22], the IC50 under setting [1] was 200 nM. With `O=c1[nH]cnc2c(O)cc(-c3ccc(N4CCOCC4)nc3)cc12` [Example 182, 8-Hydroxy-6-(6-morpholinopyridin-3-yl)quinazolin-4(3H)-one], under setting [1], the IC50 stood at 30 nM. With `O=C(c1ccccc1)c1cc(O)c2nc[nH]c(=O)c2c1` [Example 68, 6-Benzoyl-8-hydroxy-3H-quinazolin-4-one], the IC50 under setting [1] amounted to 60 nM. Take `O=c1[nH]cnc2c(O)cc(Br)cc12` [Example 126, 6-Bromo-8-hydroxyquinazolin-4(3H)-one]: under setting [1], the IC50 worked out at 140 nM. Consider `O=C(c1ccccc1)c1ccccc1-c1cc(O)c2nc[nH]c(=O)c2c1` [Example 99, 6-(2-Benzoylphenyl)-8-hydroxyquinazolin-4(3H)-one], for which the IC50 under setting [1] amounted to 100 nM.

As for `CN(C)c1ccc(-c2cc(O)c3nc[nH]c(=O)c3c2)cn1` [Example 60, 6-(6-(Dimethylamino)pyridin-3-yl)-8-hydroxyquinazolin-4(3H)-one 1:1 salt with trifluoroacetate], the concentration for half-maximal inhibition (IC50) under setting [1] was 20 nM. For `O=C(c1cc(O)c2nc[nH]c(=O)c2c1)N1CCOCC1` [Example 3, 8-Hydroxy-6-(morpholine-4-carbonyl)quinazolin-4(3H)-one], the IC50 under setting [1] amounted to 4210 nM. `O=c1[nH]cnc2c(O)cc(-c3cccnc3O)cc12` [Example 180, 8-Hydroxy-6-(2-hydroxypyridin-3-yl)quinazolin-4(3H)-one]: the IC50 under setting [1] was found to be 270 nM. The same measure, in the same setting: then `Cc1ncccc1-c1cc(O)c2nc[nH]c(=O)c2c1F` [Example 198, 5-Fluoro-8-hydroxy-6-(2-methylpyridin-3-yl)quinazolin-4(3H)-one], with 10 nM. `CS(=O)(=O)c1ccccc1-c1cc(O)c2nc[nH]c(=O)c2c1` [Example 212, 8-Hydroxy-6-(2-(methylsulfonyl)phenyl)quinazolin-4(3H)-one] came in with an IC50 (IC50, COMT-fluorescence assay) of 870 nM. For the compound `Cc1ccc(-c2c(-c3ccc(F)cc3)cc(O)c3nc[nH]c(=O)c23)cc1` [Example 50, 6-(4-Fluorophenyl)-8-hydroxy-5-p-tolylquinazolin-4(3H)-one], under setting [1], the IC50 is 10 nM. In the case of `CC(C)c1cc(O)c2nc[nH]c(=O)c2c1` [Example 13, 8-Hydroxy-6-isopropylquinazolin-4(3H)-one], the IC50 under setting [1] came to 1000 nM. Turning to `O=c1[nH]cnc2c(O)ccc(-c3ccc(F)cc3)c12` [Example 151, 5-(4-Fluorophenyl)-8-hydroxyquinazolin-4(3H)-one], under setting [1], the half-inhibitory concentration (IC50) stood at 160 nM. As to `O=c1[nH]cnc2c(O)cc(-c3ccc(F)cc3)c(-c3ccc(F)cc3)c12` [Example 102, 5,6-Bis(4-fluorophenyl)-8-hydroxyquinazolin-4(3H)-one], the IC50 under setting [1] came to 1 nM. On to `O=c1[nH]cnc2c(O)cc(-c3ccc(F)cc3)c(C(F)(F)F)c12` [Example 43, 6-(4-Fluorophenyl)-8-hydroxy-5-(trifluoromethyl)quinazolin-4(3H)-one], for which, under setting [1], the IC50 was 40 nM. `O=c1[nH]cnc2c(O)cc(-c3cccc(N4CCOCC4)c3)cc12` [Example 146, 8-Hydroxy-6-(3-morpholinophenyl)quinazolin-4(3H)-one] registered an IC50 (IC50, COMT-fluorescence assay) of 20 nM.

Turning to `O=c1[nH]cnc2c(O)c(F)c(-c3ccc(F)cc3)cc12` [Example 201, 7-Fluoro-6-(4-fluorophenyl)-8-hydroxyquinazolin-4(3H)-one], the IC50 under setting [1] is 20 nM. The same measure, in the same setting: next, `COC(=O)c1csc(-c2cc(O)c3nc[nH]c(=O)c3c2)n1` [Example 84, Methyl 2-(8-hydroxy-4-oxo-3,4-dihydroquinazolin-6-yl)thiazole-4-carboxylate]: 110 nM; `Cn1nc(C(F)(F)F)cc1-c1cc(O)c2nc[nH]c(=O)c2c1` [Example 154, 8-Hydroxy-6-(2-methyl-5-trifluoromethyl-2H-pyrazol-3-yl)-3H-quinazolin-4-one]: 20 nM.
